Data taken from patent US11091437B2, “Aryl isonitriles as a new class of antimicrobial compounds” (Purdue Research Foundation, priority 2015, dated 2021).
In brackets after ≈: the same amount, converted by molar mass. Read-outs that look alike come from different tables or passages of the source. One block for each compound: values may come before it.

Experiments:
[1] = system: MRSA; experiment: MIC by broth microdilution against MRSA, VISA and VRSA strains; format: cell-based, Staphylococcus aureus; settings: for antimicrobial activity (in words): MRSA strains tested
Experimental: The bacterial growth inhibiting activity of these synthetic analogs of hit compound 1 were subsequently evaluated (FIG. 3).
The minimum inhibitory concentration (MIC) of each compound and linezolid was determined against eight different strains of MRSA, VISA, and VRSA using a modified version of the broth microdilution method, outlined by the CLSI. Institute CaLS, Methods for Dilution Antimicrobial Susceptibility Tests for Bacteria That Grow Aerobically—Seventh Edition: Approved Standard M7-A7. 7 ed. Wayne, Pa. 2011. The same analysis was performed with vancomycin against the VISA and VRSA strains tested. A bacterial suspension (˜1 Å˜10^5 CFU/mL) was prepared in Tryptic soy broth (TSB) and then transferred to a microtiter plate. Each agent tested was added (in triplicate) to wells in the first row of the plate and then serially diluted downward.

[2] = system: MRSA USA300; experiment: whole-cell screening of in house small molecules; format: cell-based, Staphylococcus aureus; settings: MRSA USA300, whole-cell screening hit
Text: A whole-cell screening of a small number of in house generated small molecules with diverse structural skeletons (about 250 molecules) has been conducted against MRSA USA300 with the aim to identify compounds with novel skeletons to target antibiotic drug resistance. […] Marconi, G. G. et al., J. Antibiot, 1978, 31, 27-32; Mo, S. et al., J. Nat. Prod. 2009, 72, 894-899; Raveh, A. et al., J. Nat. Prod. 2007, 70, 196-201; Sugawara, T. et al., J. Antibiot, 1997, 50, 944-948; Fujiwara, A. et al., Agric. Biol. Chem. 1982, 46, 1803-1809, Marquez, J. A. et al., J. Antibiot, 1983, 36, 1101-1108. The novel structural skeleton of compound 1 as an antibacterial compound against drug resistant strains prompted further study of these types of isonitrile compounds. Herein is reported the chemical synthesis, structure-activity relationship study, and evaluation of the antibacterial performance of compound 1 and closely related analogs against several clinically-relevant MRSA and VRSA strains.

[3] = system: S. aureus exhibiting resistance to vancomycin (VRS2); experiment: MIC by broth microdilution against vancomycin-resistant S. aureus; format: cell-based; settings: Staphylococcus aureus; vancomycin-resistant clinical isolate VRS2
[4] = system: murine macrophage (J774) cell line; experiment: MTS toxicity assay against mammalian cells
[5] = human, microsomes, 1 h
[6] = physchem; settings: aqueous buffer, kinetic from dmso stock
[7] = system: Caco-2 cell monolayer; settings: human
[8] = in vitro; settings: human, Caco-2
[9] = Staphylococcus aureus, broth microdilution, over the MRSA strains tested, read-out: MIC against MRSA

MIC [1, 9]: 8 to 64 µM (≈ 1.87 to 14.9 µg/mL)
Structure (SMILES): [C-]#[N+]c1ccccc1/C=C(\CC)c1ccccc1 [Compound 1, (E)-1-isocyano-2-(2-phenylbut-1-en-1-yl)benzene]
concentration inhibiting bacterial growth [2]: 32 µM

Structure (SMILES): [C-]#[N+]c1ccccc1CP(=O)(OCC)OCC [Compound 4a, diethyl (2-isocyanobenzyl)phosphonate]
MIC ([1]; broth microdilution, over the MRSA strains tested, read-out: MIC against MRSA): > 128 µM

MIC [3]: 2 to 16 µM (≈ 0.603 to 4.82 µg/mL)
Structure (SMILES): [C-]#[N+]c1ccccc1/C=C(\CC)c1ccc(C(F)(F)F)cc1 [Compound 10, (E)-1-isocyano-2-(2-(4-(trifluoromethyl)phenyl)but-1-en-1-yl)benzene]

Structure (SMILES): [C-]#[N+]c1ccccc1/C=C(\CC)c1cccc(C(F)(F)F)c1 [Compound 12]
toxicity to J774 cells at 64 μM [4]: toxic

MIC [1, 9]: ≥ 2 µM
reduction in the MIC against MRSA relative to compound 1 ([1]; removal of the ethyl group of 1): two-to-eight
parent compound remaining after one hour [5]: 24%
parent compound remaining after one hour, NADPH not present [5]: 51%
solubility [6]: 1 to 100 µM (≈ 0.205 to 20.5 µg/mL)
apparent permeability Papp, apical (A) to basolateral (B) [7]: 0.0 cm/sec
apparent permeability Papp, basolateral to apical [7]: 0.0 cm/sec
Structure (SMILES): [C-]#[N+]c1ccccc1/C=C/c1ccccc1 [Compound 13, (E)-1-isocyano-2-styrylbenzene]
concentration up to which not toxic to mammalian cells ([4]; J774 cells): 64 µM

Structure (SMILES): [C-]#[N+]c1ccccc1/C=C/c1cccc(OC)c1 [Compound 15, (E)-1-isocyano-2-(3-methoxystyryl)benzene]
toxicity to J774 cells at 128 μM [4]: not toxic

Structure (SMILES): [C-]#[N+]c1ccccc1/C=C/c1cccc(F)c1 [Compound 19, (E)-1-(3-fluorostyryl)-2-isocyanobenzene]
toxicity to J774 cells at 64 μM [4]: toxic

MIC [1, 9]: 4 to 64 µM (≈ 0.877 to 14 µg/mL)
Structure (SMILES): [C-]#[N+]c1ccccc1/C=C/c1ccc(C)cc1 [Compound 23, (E)-1-isocyano-2-(4-methylstyryl)benzene]

MIC ([1]; Staphylococcus aureus, MRSA, read-out: MIC against most MRSA strains tested): > 128 µM
Structure (SMILES): [C-]#[N+]c1ccccc1/C=C/c1ccc(CCCC)cc1 [Compound 24, (E)-1-(4-butylstyryl)-2-isocyanobenzene]

MIC [3]: 2 to 16 µM (≈ 0.501 to 4 µg/mL)
Structure (SMILES): [C-]#[N+]c1ccccc1/C=C/c1ccc([N+](=O)[O-])cc1 [Compound 25, (E)-1-isocyano-2-(4-nitrostyryl)benzene]
toxicity to J774 cells at 32 μM ([4]; 32 μM): toxic
toxicity to J774 cells at 64 μM [4]: toxic

Structure (SMILES): [C-]#[N+]c1ccccc1C=C1CCCCC1 [Compound 26, 1-(cyclohexylidenemethyl)-2-isocyanobenzene]
activity against MRSA USA300, MRSA USA500 and MRSA NRS119 ([1]; strains USA300, USA500, NRS119): inactive

Structure (SMILES): [C-]#[N+]c1ccccc1/C=C/c1ccccn1 [Compound 27, (E)-2-(2-isocyanostyryl)pyridine]
antimicrobial activity (in words) ([1]; broth microdilution): reduced antimicrobial activities

Structure (SMILES): [C-]#[N+]c1ccccc1/C=C/c1cccnc1 [Compound 30, (E)-3-(2-isocyanostyryl)pyridine]
antimicrobial activity (in words) ([1]; broth microdilution): reduced antimicrobial activities
toxicity to J774 cells at 128 μM [4]: not toxic

MIC [3]: 2 to 16 µM (≈ 0.412 to 3.3 µg/mL)
Structure (SMILES): [C-]#[N+]c1ccc(/C=C/c2cccnc2)cc1 [Compound 32, (E)-3-(4-isocyanostyryl)pyridine]

Structure (SMILES): [C-]#[N+]c1ccccc1/C=C/c1ccncc1 [Compound 33, (E)-4-(2-isocyanostyryl)pyridine]
antimicrobial activity (in words) ([1]; broth microdilution): reduced antimicrobial activities

MIC [3]: 2 to 16 µM (≈ 0.412 to 3.3 µg/mL)
Structure (SMILES): [C-]#[N+]c1ccc(/C=C/c2ccncc2)cc1 [Compound 35, (E)-4-(4-isocyanostyryl)pyridine]
activity relative to ortho- and meta-substituted 33 and 34 ([1]; all the strains tested): much more active

Structure (SMILES): [C-]#[N+]c1ccc(/C=C/c2ccccc2)cc1 [Compound 37, (E)-1-isocyano-4-styrylbenzene]
activity relative to ortho-substituted compound 13 ([1]; MSSA (NRS72) and MRSA USA500): slight improvement
toxicity to J774 cells at 128 μM [4]: not toxic

Structure (SMILES): [C-]#[N+]c1ccc(C)cc1-c1ccc(C(F)(F)F)cc1 [Compound 50, 2-isocyano-5-methyl-4′(trifluoromethyl)-1,1′-biphenyl]
antimicrobial activity (in words) ([1]; broth microdilution): loss in antimicrobial activity

Structure (SMILES): [C-]#[N+]c1ccccc1CCc1ccccc1 [Compound 53, 1-isocyano-2-phenethylbenzene]
potency relative to compound 13 ([1]; all strains tested except VISA NRS1): less potent
activity against MRSA USA100, MRSA USA300, MRSA NRS119 and VISA NRS1 ([1]; strains USA100, USA300, NRS119, VISA NRS1): active

Papp B→A [8]: 27 ×10⁻⁶ cm/s
Structure (SMILES): CC(=O)CC(c1ccccc1)c1c(O)c2ccccc2oc1=O (stereo not shown) [warfarin]
